Results reported in PubChem BioAssay (NCI).
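Growth conditions: 96-well plates. Treatment: test compound, 48 hours, 5 concentrations. Analysis: linear interpolation between bracketing concentrations; unreached endpoints set to highest concentration. At the GI50, growth is halved. TGI: concentration producing complete growth inhibition.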

Columns and labels:
Test in all cases: growth of human tumour cells (NCI), 48 h
786-0 renal = system: 786-0 renal
M14 melanoma = system: M14 melanoma
A498 renal = system: A498 renal
SF-539 CNS = system: SF-539 CNS
UO-31 renal = system: UO-31 renal
SK-MEL-2 melanoma = system: SK-MEL-2 melanoma
PC-3 prostate = system: PC-3 prostate
NCI/ADR-RES ovarian = system: NCI/ADR-RES ovarian
MCF7 breast = system: MCF7 breast
BT-549 breast = system: BT-549 breast

SMILES: C/C=C/C(=O)[O-].N.N.N.N.N.[Co+3].[O-][Cl+3]([O-])([O-])[O-]
- GI50 (786-0 renal): > 100 µM
- TGI (786-0 renal): > 100 µM
- GI50 (M14 melanoma): > 100 µM
- TGI (M14 melanoma): > 100 µM
- GI50 (A498 renal): > 100 µM
- TGI (A498 renal): > 100 µM
- GI50 (SF-539 CNS): > 100 µM
- TGI (SF-539 CNS): > 100 µM
- GI50 (UO-31 renal): > 100 µM
- TGI (UO-31 renal): > 100 µM
- GI50 (SK-MEL-2 melanoma): > 100 µM
- TGI (SK-MEL-2 melanoma): > 100 µM

SMILES: Cc1ccc(C)c2c1CCc1cc3ccccc3nc1-2
- TGI (786-0 renal): > 100 µM
- TGI (M14 melanoma): > 100 µM
- TGI (A498 renal): > 100 µM
- TGI (SF-539 CNS): > 100 µM
- TGI (UO-31 renal): > 100 µM
- TGI (SK-MEL-2 melanoma): > 100 µM

SMILES: Cc1cc(S(=O)(=O)Nc2nc3cc(-c4ccsc4)sc3c(=O)n2N)c(S)cc1Cl
- GI50 (PC-3 prostate): 47.6 µM
- TGI (PC-3 prostate): > 100 µM
- GI50 (786-0 renal): 90.9 µM
- TGI (786-0 renal): > 100 µM
- GI50 (M14 melanoma): > 100 µM
- TGI (M14 melanoma): > 100 µM
- GI50 (SF-539 CNS): 67.4 µM
- TGI (SF-539 CNS): > 100 µM
- GI50 (NCI/ADR-RES ovarian): 50.6 µM
- TGI (NCI/ADR-RES ovarian): > 100 µM
- GI50 (UO-31 renal): > 100 µM
- TGI (UO-31 renal): > 100 µM
- GI50 (MCF7 breast): 46.9 µM
- TGI (MCF7 breast): > 100 µM
- GI50 (SK-MEL-2 melanoma): > 100 µM
- TGI (SK-MEL-2 melanoma): > 100 µM

SMILES: O=c1cccccc1NCCNc1cccccc1=O
- TGI (786-0 renal): > 100 µM
- TGI (M14 melanoma): > 100 µM
- TGI (SF-539 CNS): > 100 µM
- TGI (UO-31 renal): > 100 µM
- TGI (SK-MEL-2 melanoma): > 100 µM

SMILES: O=C1C2=C(c3ccccc31)C(c1ccc(Cl)cc1)NC(=S)N2 (stereo unspecified)
- TGI (786-0 renal): 34 µM
- TGI (M14 melanoma): 54.6 µM
- TGI (A498 renal): > 100 µM
- TGI (SF-539 CNS): 29.6 µM
- TGI (UO-31 renal): 35 µM
- TGI (SK-MEL-2 melanoma): 58.7 µM

SMILES: CNC(C)Cc1ccc(O)cc1 (stereo unspecified)
- TGI (786-0 renal): > 100 µM
- TGI (M14 melanoma): > 100 µM
- TGI (A498 renal): > 100 µM
- TGI (SF-539 CNS): > 100 µM
- TGI (UO-31 renal): > 100 µM
- TGI (SK-MEL-2 melanoma): > 100 µM

SMILES: CC(=O)OCC(OC(C)=O)C(OC(C)=O)C(OC(C)=O)C(=O)CNn1c(-c2ccccc2Cl)nc2ccc(Br)cc2c1=O (stereo unspecified)
- TGI (786-0 renal): > 100 µM
- TGI (M14 melanoma): > 100 µM
- TGI (A498 renal): > 100 µM
- TGI (SF-539 CNS): > 100 µM
- TGI (UO-31 renal): > 100 µM
- TGI (SK-MEL-2 melanoma): > 100 µM

SMILES: CN(C)c1ccc(N=C(C#N)c2nc(N)nc(N3CCN(c4ccccc4)CC3)n2)cc1
- GI50 (PC-3 prostate): 36.9 µM
- TGI (PC-3 prostate): > 50 µM
- GI50 (786-0 renal): > 50 µM
- TGI (786-0 renal): > 50 µM
- GI50 (M14 melanoma): > 50 µM
- TGI (M14 melanoma): > 50 µM
- GI50 (SF-539 CNS): 18.4 µM
- TGI (SF-539 CNS): > 50 µM
- GI50 (NCI/ADR-RES ovarian): 34.2 µM
- TGI (NCI/ADR-RES ovarian): > 50 µM
- GI50 (UO-31 renal): > 18 µM
- TGI (UO-31 renal): > 32.5 µM
- GI50 (BT-549 breast): 23.6 µM
- TGI (BT-549 breast): > 50 µM
- GI50 (MCF7 breast): 21 µM
- TGI (MCF7 breast): 37.4 µM
- GI50 (SK-MEL-2 melanoma): > 50 µM
- TGI (SK-MEL-2 melanoma): > 50 µM

SMILES: CC(=O)O[C@H](C[C@H](C(C)C)N(C)C(=O)[C@@H](NC(=O)[C@H]1CCCCN1C)C(C)(C)C)c1nc(C(=O)N[C@@H](Cc2ccccc2)C[C@H](C)C(=O)O)cs1
- GI50 (PC-3 prostate): < 0.0025 µM
- TGI (PC-3 prostate): > 25 µM
- GI50 (786-0 renal): < 0.0025 µM
- TGI (786-0 renal): > 25 µM
- GI50 (M14 melanoma): < 0.0025 µM
- GI50 (SF-539 CNS): < 0.0025 µM
- TGI (SF-539 CNS): 0.0046 µM
- GI50 (NCI/ADR-RES ovarian): 0.00524 µM
- TGI (NCI/ADR-RES ovarian): > 25 µM
- GI50 (UO-31 renal): 0.0192 µM
- TGI (UO-31 renal): > 25 µM
- GI50 (BT-549 breast): 0.00304 µM
- TGI (BT-549 breast): 0.0645 µM
- GI50 (MCF7 breast): < 0.0025 µM
- TGI (MCF7 breast): > 25 µM
- GI50 (SK-MEL-2 melanoma): < 0.0025 µM
- TGI (SK-MEL-2 melanoma): > 25 µM

SMILES: [N-]=[N+]=Nc1c(Br)c(=O)[nH]c(=O)n1COCCO
- TGI (786-0 renal): > 100 µM
- TGI (M14 melanoma): > 100 µM
- TGI (SF-539 CNS): > 100 µM
- TGI (UO-31 renal): > 100 µM

SMILES: COc1cc(C(=O)C/C(CCC(=O)Nc2ccc(Cl)cc2Cl)=N/Nc2nnc(C)n2N)ccc1O
- TGI (786-0 renal): > 100 µM
- TGI (M14 melanoma): > 100 µM
- TGI (A498 renal): > 100 µM
- TGI (SF-539 CNS): > 100 µM
- TGI (UO-31 renal): > 100 µM
- TGI (SK-MEL-2 melanoma): > 100 µM

SMILES: CCCNc1cccc(-n2ncc3c(N/N=C/c4ccncc4)ncnc32)c1
- GI50 (PC-3 prostate): > 25 µM
- TGI (PC-3 prostate): > 25 µM
- GI50 (786-0 renal): > 25 µM
- TGI (786-0 renal): > 25 µM
- GI50 (M14 melanoma): 1.69 µM
- TGI (M14 melanoma): > 25 µM
- GI50 (A498 renal): 1.12 µM
- TGI (A498 renal): > 25 µM
- GI50 (SF-539 CNS): > 8.45 µM
- TGI (SF-539 CNS): > 25 µM
- GI50 (NCI/ADR-RES ovarian): 1.93 µM
- TGI (NCI/ADR-RES ovarian): > 25 µM
- GI50 (BT-549 breast): > 8.4 µM
- TGI (BT-549 breast): > 25 µM
- GI50 (MCF7 breast): > 5.61 µM
- TGI (MCF7 breast): > 25 µM
- GI50 (SK-MEL-2 melanoma): 1.49 µM
- TGI (SK-MEL-2 melanoma): > 25 µM

SMILES: COC(=O)C1=C(c2cc(OC)c(OC)c(OC)c2)O[C@H](c2ccc3c(c2)OCO3)[C@H]1COC(C)=O
- TGI (786-0 renal): 78.4 µM
- TGI (M14 melanoma): 43.3 µM
- TGI (A498 renal): 48.6 µM
- TGI (SF-539 CNS): 91.1 µM
- TGI (UO-31 renal): 80 µM
- TGI (SK-MEL-2 melanoma): > 100 µM

SMILES: O=C(O)Cc1cc(=O)[nH]c2c1C(=O)CCC2
- TGI (786-0 renal): > 100 µM
- TGI (M14 melanoma): > 100 µM
- TGI (UO-31 renal): > 100 µM
- TGI (SK-MEL-2 melanoma): > 100 µM

SMILES: COC(=O)/C(=N/O)C(C(=O)OC)C(=O)C(=O)Nc1c(Cl)cc(C)cc1S(=O)(=O)O (stereo unspecified)
- TGI (786-0 renal): > 100 µM
- TGI (M14 melanoma): > 100 µM
- TGI (A498 renal): > 100 µM
- TGI (SF-539 CNS): > 100 µM
- TGI (UO-31 renal): > 100 µM
- TGI (SK-MEL-2 melanoma): > 100 µM

SMILES: O=C(O)c1oc2cccc3c2c1CCC3
- TGI (786-0 renal): > 100 µM
- TGI (M14 melanoma): > 100 µM
- TGI (A498 renal): > 100 µM
- TGI (SF-539 CNS): > 100 µM
- TGI (UO-31 renal): > 100 µM
- TGI (SK-MEL-2 melanoma): > 100 µM

SMILES: COc1cc(CC2CC(c3ccc4c(c3)OCO4)OC2=O)cc(OC)c1OC (stereo unspecified)
- TGI (PC-3 prostate): > 100 µM
- TGI (786-0 renal): > 100 µM
- TGI (M14 melanoma): > 100 µM
- TGI (A498 renal): > 100 µM
- TGI (SF-539 CNS): > 100 µM
- TGI (NCI/ADR-RES ovarian): > 100 µM
- TGI (UO-31 renal): 82.4 µM
- TGI (MCF7 breast): > 100 µM

SMILES: CCCCN(CCCC)C(=O)C(=O)CC(=O)/C=C/c1ccccc1
- TGI (786-0 renal): > 100 µM
- TGI (M14 melanoma): > 100 µM
- TGI (A498 renal): > 100 µM
- TGI (SF-539 CNS): > 100 µM
- TGI (UO-31 renal): > 100 µM
- TGI (SK-MEL-2 melanoma): > 100 µM

SMILES: COC(=O)c1nn(C(=N)c2ccc(Cl)cc2)c2c1CCCCC2
- TGI (786-0 renal): > 100 µM
- TGI (M14 melanoma): > 100 µM
- TGI (A498 renal): > 100 µM
- TGI (SF-539 CNS): > 100 µM
- TGI (UO-31 renal): > 100 µM
- TGI (SK-MEL-2 melanoma): > 100 µM

SMILES: C[C@H]1CCC/C=C/[C@@H]2C[C@H](O)C[C@H]2[C@H](O)[C@@H](SC2OC(CO)C(O)C(O)C2O)CC(=O)O1 (stereo partly specified)
- GI50 (PC-3 prostate): > 100 µM
- TGI (PC-3 prostate): > 100 µM
- GI50 (786-0 renal): 25.1 µM
- TGI (786-0 renal): 59.9 µM
- GI50 (M14 melanoma): 61.3 µM
- TGI (M14 melanoma): > 100 µM
- GI50 (A498 renal): 20.7 µM
- TGI (A498 renal): 63.8 µM
- GI50 (SF-539 CNS): 31.9 µM
- TGI (SF-539 CNS): > 100 µM
- GI50 (NCI/ADR-RES ovarian): 43.3 µM
- TGI (NCI/ADR-RES ovarian): > 100 µM
- GI50 (UO-31 renal): 47.9 µM
- TGI (UO-31 renal): > 100 µM
- GI50 (MCF7 breast): 35.1 µM
- TGI (MCF7 breast): > 100 µM
- GI50 (SK-MEL-2 melanoma): > 100 µM
- TGI (SK-MEL-2 melanoma): > 100 µM

SMILES: N[C@H](C(=O)O)[C@@H](Cl)CC(=O)O
- TGI (786-0 renal): > 100 µM
- TGI (M14 melanoma): > 100 µM
- TGI (A498 renal): > 100 µM
- TGI (SF-539 CNS): > 100 µM
- TGI (UO-31 renal): > 100 µM
- TGI (SK-MEL-2 melanoma): > 100 µM

SMILES: CCOC(=O)NC(=O)c1cn(C2OC(CO)C(O)C2O)c(=O)[nH]c1=O (stereo unspecified)
- TGI (786-0 renal): > 100 µM
- TGI (M14 melanoma): > 100 µM
- TGI (A498 renal): > 100 µM
- TGI (SF-539 CNS): > 100 µM
- TGI (UO-31 renal): > 100 µM
- TGI (SK-MEL-2 melanoma): > 100 µM

SMILES: c1ccc(-c2cnc3nc4ccccc4nc3n2)cc1
- TGI (786-0 renal): > 100 µM
- TGI (M14 melanoma): 25.6 µM
- TGI (A498 renal): 27.1 µM
- TGI (SF-539 CNS): 15.8 µM
- TGI (NCI/ADR-RES ovarian): 39 µM
- TGI (UO-31 renal): 19.5 µM
- TGI (BT-549 breast): 29 µM
- TGI (MCF7 breast): 4.71 µM
- TGI (SK-MEL-2 melanoma): 15.1 µM
